# Reference: US7959951B2, “Nitric oxide and its biomedical significance” (The Research Foundation at State University of New York, priority 2002, dated 2011)
# System: E. coli bacteria
# Assay: Inhibition of bacterial growth in LB broth culture
# Format: cell-based
# Conditions: One μg/ml in LB broth, 37° C, streaked on LB-agar
# Protocol: A dried, powdered, formulation of a 1:1 mixture of the wheat grass extract and white willow bark extract prepared in Example 1 above was tested for its ability to inhibit bacterial growth in culture. The formulation was reconstituted in 10 ml of LB broth (Amersham Biosciences, Inc.). The broth was then inoculated with E. coli bacteria and incubated for 5 and 24 hours at 37° C. 20 μl of the cultures were streaked on LB-agar plates and incubated overnight at 37° C. […] An additional control experiment was conducted with the known antibacterial agent, SNAP. One μg/ml SNAP was added to LB broth. The broth was then inoculated with E. coli bacteria and incubated for 5 and 24 hours at 37° C. 20 μl of the cultures were streaked on LB-agar plates and incubated overnight at 37° C. Bacterial growth was decreased in the SNAP culture at 5 and 24 hours, as compared to the control.
smiles,measurement,value
CC(=O)N[C@@H](C(=O)O)C(C)(C)SN=O (racemic) [SNAP],bacterial growth at 5 and 24 hours compared to control,decreased
